Source: publication PMC3621832, “Non-Complexed Four Cascade Enzyme Mixture: Simple Purification and Synergetic Co-stabilization” (PLoS ONE, 2013)

Tests used:
Type in all cases: biochemical
[1] = target: T1, fructose bisphosphate aldolase (ALD) (Thermotoga maritima, UniProt Q9WYB0); assay: coupled cascade with TIM, FBP and PGI; G6P by enzymatic glucose reagent
T1 construct: gene TM_0273; heat and ammonium sulfate purification
T1 sequence (Q9WYB0 1-315): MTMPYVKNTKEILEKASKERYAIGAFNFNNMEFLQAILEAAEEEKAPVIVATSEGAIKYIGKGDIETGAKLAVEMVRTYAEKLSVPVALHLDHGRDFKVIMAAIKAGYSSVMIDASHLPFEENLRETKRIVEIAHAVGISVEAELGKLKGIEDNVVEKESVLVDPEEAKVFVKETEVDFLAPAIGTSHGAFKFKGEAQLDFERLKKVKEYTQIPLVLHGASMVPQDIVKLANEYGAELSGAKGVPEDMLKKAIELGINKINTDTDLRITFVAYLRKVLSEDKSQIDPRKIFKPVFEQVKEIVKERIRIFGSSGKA

[2] = target: T2, fructose bisphosphatase (FBP) (Thermotoga maritima, UniProt O33832); assay: FBP activity assay as described elsewhere; also in four-enzyme cascade
T2 construct: gene suhB; recombinant, E. coli, plasmid pCIF (CBM-intein-FBP), tag-free after intein self-cleavage
T2 sequence (O33832 1-256): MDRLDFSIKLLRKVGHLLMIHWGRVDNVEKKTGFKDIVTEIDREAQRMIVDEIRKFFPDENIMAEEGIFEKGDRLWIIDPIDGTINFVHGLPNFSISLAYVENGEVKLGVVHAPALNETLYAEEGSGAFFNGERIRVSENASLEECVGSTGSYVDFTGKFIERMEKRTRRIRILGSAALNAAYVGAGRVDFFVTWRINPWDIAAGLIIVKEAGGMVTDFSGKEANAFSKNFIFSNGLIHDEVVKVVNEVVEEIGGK

[3] = target: T3, phosphoglucose isomerase (PGI) (Acetivibrio thermocellus, UniProt A3DBX9); assay: G6P formation by enzymatic glucose kit; details: 100 mM HEPES pH 7.5, 10 mM MgCl2, 0.5 mM MnCl2, 60°C
T3 construct: recombinant, E. coli, plasmid pCIP (CBM-intein-PGI), tag-free after intein self-cleavage
T3 sequence (A3DBX9 1-448): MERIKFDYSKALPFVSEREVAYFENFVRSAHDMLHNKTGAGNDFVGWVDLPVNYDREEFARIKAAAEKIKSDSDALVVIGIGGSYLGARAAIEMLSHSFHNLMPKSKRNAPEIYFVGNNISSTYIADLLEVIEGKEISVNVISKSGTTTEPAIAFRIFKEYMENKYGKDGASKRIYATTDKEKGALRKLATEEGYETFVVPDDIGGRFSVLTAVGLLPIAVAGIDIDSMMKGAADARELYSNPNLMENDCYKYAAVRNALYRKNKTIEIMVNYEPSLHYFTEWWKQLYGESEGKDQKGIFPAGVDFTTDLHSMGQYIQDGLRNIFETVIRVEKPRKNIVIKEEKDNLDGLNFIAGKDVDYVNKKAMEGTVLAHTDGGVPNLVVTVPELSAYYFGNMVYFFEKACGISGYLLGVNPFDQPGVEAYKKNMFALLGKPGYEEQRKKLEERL

O=C(CO)COP(=O)(O)O [dihydroxyacetone phosphate]
coupled cascade with TIM, FBP and PGI; G6P by enzymatic glucose reagent ([1]; co-substrate G3P): G3P and DHAP were substrates and F16P was the product

O=P(O)(O)OC[C@H]1OC(O)(COP(=O)(O)O)[C@@H](O)[C@@H]1O (stereo partly shown) [fructose 1,6-bisphosphate]
FBP activity assay as described elsewhere; also in four-enzyme cascade [2]: FBP catalyses the irreversible conversion of F16P to fructose 6-phosphate (F6P)

O=P(O)(O)OC[C@H]1OC(O)(CO)[C@@H](O)[C@@H]1O (stereo partly shown) [fructose 6-phosphate]
G6P formation by enzymatic glucose kit [3]: PGI reversibly converts fructose-6-phosphate (F6P) and glucose-6-phosphate (G6P)

O=C[C@H](O)COP(=O)(O)O [glyceraldehyde-3-phosphate]
coupled cascade with TIM, FBP and PGI; G6P by enzymatic glucose reagent ([1]; co-substrate DHAP): G3P and DHAP were substrates and F16P was the product
